Legend:
[1] = test system: Japanese medaka (Oryzias latipes); assay: Fish short-term reproduction assay (FSTRA, OECD TG229), 21-day flow-through exposure; conditions: for Fertility rate (%) / Mortality (%) Female / Mortality (%) Male / Number of fertilized eggs / Number of total eggs / SSC Female / SSC Male / VTG (ng/mg of liver) Female / VTG (ng/mg of liver) Male: 21 days; for GSI Female / GSI Male / HSI Female / HSI Male / Length Female / Length Male / Weight Female / Weight Male: at completion of exposure
Summary of the method: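 Run to OECD TG229: mature NIES-R medaka pairs (3♂/3♀ per vessel, 4 vessels per treatment plus dilution water control) were dosed by continuous flow-through for 21 days. Test concentrations were spaced 2- to 5-fold. Daily spawned eggs were counted under the microscope for fertilized versus unfertilized.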

Japanese medaka = conditions: long-term testing; ref Seki et al., 2004; cited from earlier work
medaka ARβ (mARβ) = medaka ARβ (mARβ) (Oryzias latipes, UniProt D1MV73); assay: Medaka ARβ reporter gene assay (RGA), agonist assay, HepG2 cells; type: cell-based, Japanese medaka (Oryzias latipes); conditions: mARβ RGA agonist assay; ND = no significant response even at the highest assay concentration (in parentheses)
Procedure: To support interpretation of the biological effects observed in the FSTRA studies, in vitro RGAs using medaka Esr1 (mEsr1) and medaka ARβ (mARβ) were performed for the 16 test chemicals.
For the assays, human liver cancer cell line, HepG2, was used as the host cells, and mARβ/pcDNA3.1, MMTV‐Luc, and pRL‐TK‐Rlu were used as mARβ expression vector, reporter vector, and internal control vector, respectively.
Effect concentrations, that is, EC50 (a half maximal effective concentration) in the agonist assay and IC50 (a half maximal inhibitory concentration) in the antagonist assay, were estimated by nonlinear curve fitting (e.g., three parameters logistic regression curve) using GraphPad Prism (GraphPad Software Inc., La Jolla, CA, USA).

medaka ARβ (mARβ), sequence (D1MV73 entry or part of it): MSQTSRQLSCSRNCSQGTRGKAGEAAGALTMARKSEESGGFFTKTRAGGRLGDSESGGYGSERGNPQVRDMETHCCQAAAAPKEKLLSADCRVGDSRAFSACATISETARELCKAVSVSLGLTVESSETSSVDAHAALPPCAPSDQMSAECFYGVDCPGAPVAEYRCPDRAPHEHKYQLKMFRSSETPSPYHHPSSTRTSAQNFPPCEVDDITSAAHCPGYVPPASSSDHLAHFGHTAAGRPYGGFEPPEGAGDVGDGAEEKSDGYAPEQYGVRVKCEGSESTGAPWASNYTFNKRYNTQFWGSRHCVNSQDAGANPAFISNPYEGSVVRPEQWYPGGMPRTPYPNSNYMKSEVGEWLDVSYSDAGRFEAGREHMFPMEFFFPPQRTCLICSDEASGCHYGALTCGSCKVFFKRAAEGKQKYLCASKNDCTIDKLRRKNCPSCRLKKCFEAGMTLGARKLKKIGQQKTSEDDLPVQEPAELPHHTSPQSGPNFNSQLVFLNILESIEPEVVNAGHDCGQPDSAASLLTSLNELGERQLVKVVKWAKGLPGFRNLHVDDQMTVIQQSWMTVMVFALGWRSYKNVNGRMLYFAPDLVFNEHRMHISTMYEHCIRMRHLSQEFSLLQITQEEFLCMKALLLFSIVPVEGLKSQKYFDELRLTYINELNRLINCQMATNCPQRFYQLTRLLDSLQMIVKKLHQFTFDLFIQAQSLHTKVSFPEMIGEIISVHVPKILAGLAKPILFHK

C[C@]12CCC(=O)C=C1CC[C@@H]1[C@@H]2CC[C@@]2(C)[C@H]1CC[C@]2(C)O [MT, 17α‐methyltestosterone]
effect on female hepatic VTG, in words ([1]; 21-day exposure): decreased
LOEC on female SSC (papillary process formation on anal fin) ([1]; 21-day exposure, measured conc.): 20.1 ng/L
Fertility rate (%) ([1]; measured conc. 20.1 ng/L): 89%
Mortality (%) Female ([1]; measured conc. 20.1 ng/L): 0%
Mortality (%) Male ([1]; measured conc. 20.1 ng/L): 0%
Number of fertilized eggs ([1]; measured conc. 20.1 ng/L): 23
Number of total eggs ([1]; measured conc. 20.1 ng/L): 25 ± 4.6 /female/day
SSC Female ([1]; measured conc. 20.1 ng/L): 28 ± 2.0
SSC Male ([1]; measured conc. 20.1 ng/L): 104 ± 12
VTG (ng/mg of liver) Female ([1]; measured conc. 20.1 ng/L): 1,650 ± 134 ng/mg of liver
VTG (ng/mg of liver) Male ([1]; measured conc. 20.1 ng/L): 1.5 ± 0.3 ng/mg of liver
GSI Female ([1]; measured conc. 20.1 ng/L): 13.5%
GSI Male ([1]; measured conc. 20.1 ng/L): 0.68%
HSI Female ([1]; measured conc. 20.1 ng/L): 4.8%
HSI Male ([1]; measured conc. 20.1 ng/L): 2.5%
Length Female ([1]; measured conc. 20.1 ng/L): 36.1 mm
Length Male ([1]; measured conc. 20.1 ng/L): 37.3 mm
Weight Female ([1]; measured conc. 20.1 ng/L): 592 mg
Weight Male ([1]; measured conc. 20.1 ng/L): 546 mg
Fertility rate (%) ([1]; measured conc. 77.4 ng/L): 80%
Mortality (%) Female ([1]; measured conc. 77.4 ng/L): 0%
Mortality (%) Male ([1]; measured conc. 77.4 ng/L): 0%
Number of fertilized eggs ([1]; measured conc. 77.4 ng/L): 8.1
Number of total eggs ([1]; measured conc. 77.4 ng/L): 10 ± 2.9 /female/day
SSC Female ([1]; measured conc. 77.4 ng/L): 78 ± 7.9
SSC Male ([1]; measured conc. 77.4 ng/L): 106 ± 7.6
VTG (ng/mg of liver) Female ([1]; measured conc. 77.4 ng/L): 1,080 ± 391 ng/mg of liver
VTG (ng/mg of liver) Male ([1]; measured conc. 77.4 ng/L): 2.1 ± 0.3 ng/mg of liver
GSI Female ([1]; measured conc. 77.4 ng/L): 18.6%
GSI Male ([1]; measured conc. 77.4 ng/L): 0.78%
HSI Female ([1]; measured conc. 77.4 ng/L): 4.4%
HSI Male ([1]; measured conc. 77.4 ng/L): 2.4%
Length Female ([1]; measured conc. 77.4 ng/L): 36.7 mm
Length Male ([1]; measured conc. 77.4 ng/L): 38.3 mm
Weight Female ([1]; measured conc. 77.4 ng/L): 694 mg
Weight Male ([1]; measured conc. 77.4 ng/L): 603 mg
Fertility rate (%) ([1]; measured conc. 300 ng/L): 79%
Mortality (%) Female ([1]; measured conc. 300 ng/L): 8.3%
Mortality (%) Male ([1]; measured conc. 300 ng/L): 0%
Number of fertilized eggs ([1]; measured conc. 300 ng/L): 1.4
Number of total eggs ([1]; measured conc. 300 ng/L): 1.8 ± 1.1 /female/day
SSC Female ([1]; measured conc. 300 ng/L): 85 ± 11
SSC Male ([1]; measured conc. 300 ng/L): 112 ± 7.1
VTG (ng/mg of liver) Female ([1]; measured conc. 300 ng/L): 320 ± 266 ng/mg of liver
VTG (ng/mg of liver) Male ([1]; measured conc. 300 ng/L): 1.9 ± 0.6 ng/mg of liver
GSI Female ([1]; measured conc. 300 ng/L): 12.6%
GSI Male ([1]; measured conc. 300 ng/L): 0.68%
HSI Female ([1]; measured conc. 300 ng/L): 4.2%
HSI Male ([1]; measured conc. 300 ng/L): 2.5%
Length Female ([1]; measured conc. 300 ng/L): 37.0 mm
Length Male ([1]; measured conc. 300 ng/L): 37.5 mm
Weight Female ([1]; measured conc. 300 ng/L): 654 mg
Weight Male ([1]; measured conc. 300 ng/L): 561 mg
effect on fecundity (number of total eggs), in words ([1]; within the test concentrations, 21-day exposure): significantly reduced
concentration causing induction of SSC in females and reduction of reproduction (Japanese medaka): 9.98 pg/mL
EC50 (medaka ARβ (mARβ)): 120 pM

From article PMC8359193, “Summary of reference chemicals evaluated by the fish short‐term reproduction assay, OECD TG229, using Japanese Medaka, Oryzias latipes” (Journal of Applied Toxicology, 2021)
